This note sets out measurements from patent US20260206762A1, “PYRIMIDINONE DERIVATIVES AS PESTICIDAL COMPOUNDS” (BASF SE, priority 2022, published 2026).

In general, mortality refers to the percentage killed.

Where only a bound is given, the exact number is not on record here.

In assay [1] the test system is diamond back moth (Plutella xylostella). Description: Diamond back moth (Plutella xylostella) cabbage leaf disc dip test. Format: in vivo. The following applies: for mortality at 800 ppm: Plutella xylostella, foliar, 3rd instar larvae, 72 hours after treatment, read-out: mortality in comparison with untreated controls; for Test according to B.4 (Plutella xylostella) @ 10 ppm: comparison data. The protocol: B.4 Diamond Back Moth (Plutella xylostella)
The active compound is dissolved at the desired concentration in a mixture of 1:1 (vol:vol) distilled water: acetone. Surfactant (Kinetic) is added at a rate of 0.01% (vol/vol). The test solution is prepared at the day of use. Cabbage leaf discs (60 mm in diameter) are dipped in test solution and air-dried. Treated leaves are placed in petri dishes lined with moistened filter paper and inoculated with ten 3rd instar larvae. Mortality is recorded 72 hours after treatment. Feeding damage is also recorded using a scale of 0-100%.

Assay [2] concerns tobacco budworm (Heliothis virescens). Description: Tobacco budworm (Heliothis virescens) microtiter diet test, egg and larval mortality. Type of assay: in vivo. Conditions: 120 h, egg and larval mortality after 5 days, read-out: mortality in comparison with untreated controls. The method, then: B.2 Tobacco Budworm (Heliothis virescens)
For evaluating control of tobacco budworm (Heliothis virescens) the test unit consisted of 96-well-microtiter plates containing an insect diet and 15-25 H. virescens eggs. The compounds were formulated using a solution containing 75% v/v water and 25% v/v DMSO. Different concentrations of formulated compounds were sprayed onto the insect diet at 10 μl, using a custom-built micro atomizer, at two replications. After application, microtiter plates were incubated at about 28±1° C. and about 80±5% relative humidity for 5 days. Egg and larval mortality was then visually assessed.

In assay [3] the test system is southern armyworm (Spodoptera eridania), 2nd instar larvae. Description: whole plant or invertebrate. The following applies: in Phaseolus lunatus, foliar, 96 h, read-out: mortality in comparison with untreated controls. The protocol:
B.5 Southern Armyworm (Spodoptera eridania), 2nd Instar Larvae
The 10,000 ppm solution was serially diluted in 100% cyclohexanone to make interim solutions. These served as stock solutions for which final dilutions were made by the Tecan in 50% acetone:50% water (v/v) into 10 or 20 ml glass vials. A nonionic surfactant (Kinetic®) was included in the solution at a volume of 0.01% (v/v). The vials were then inserted into an automated electrostatic sprayer equipped with an atomizing nozzle for application to plants/insects. Lima bean plants (variety Sieva) were grown 2 plants to a pot and selected for treatment at the 1st true leaf stage. Test solutions were sprayed onto the foliage by an automated electrostatic plant sprayer equipped with an atomizing spray nozzle. The plants were dried in the sprayer fume hood and then removed from the sprayer. Each pot was placed into perforated plastic bags with a zip closure. Ten to 11 armyworm larvae were placed into the bag and the bags zipped closed. Test plants were maintained in a growth room at about 25° C. and about 20-40% relative humidity for 4 days, avoiding direct exposure to fluorescent light (14:10 light:dark photoperiod) to prevent trapping of heat inside the bags. Mortality and reduced feeding were assessed 4 days after treatment, compared to untreated control plants.

The test system of assay [4] is boll weevil (Anthonomus grandis). Description: Boll weevil (Anthonomus grandis) microtiter diet test, egg and larval mortality. Type of assay: in vivo. The following applies: 120 h, egg and larval mortality after 5 days, read-out: mortality in comparison with untreated controls. The method, then: B.1 Boll Weevil (Anthonomus grandis)
For evaluating control of boll weevil (Anthonomus grandis) the test unit consisted of 96-well-microtiter plates containing an insect diet and 5-10 A. grandis eggs. The compounds were formulated using a solution containing 75% v/v water and 25% v/v DMSO. Different concentrations of formulated compounds were sprayed onto the insect diet at 5 μl, using a custom-built micro atomizer, at two replications. After application, microtiter plates were incubated at about 25±1° C. and about 75±5% relative humidity for 5 days. Egg and larval mortality was then visually assessed.

For assay [5], the system named is green peach aphid (Myzus persicae). Description: Green peach aphid (Myzus persicae) systemic artificial diet test. Format: in vivo. Conditions: 72 h, aphid mortality after 3 days, read-out: mortality in comparison with untreated controls. The text has this:
B.3 Green Peach Aphid (Myzus persicae)
For evaluating control of green peach aphid (Myzus persicae) through systemic means the test unit consisted of 96-well-microtiter plates containing liquid artificial diet under an artificial membrane. The compounds were formulated using a solution containing 75% v/v water and 25% v/v DMSO. Different concentrations of formulated compounds were pipetted into the aphid diet, using a custom built pipetter, at two replications. After application, 5-8 adult aphids were placed on the artificial membrane inside the microtiter plate wells. The aphids were then allowed to suck on the treated aphid diet and incubated at about 23±1° C. and about 50±5% relative humidity for 3 days. Aphid mortality and fecundity was then visually assessed.

In the case of `CCS(=O)(=O)c1cc(-c2ccc(F)cc2)cnc1-c1cn2c(=O)n(C3CC3)c(Cl)cc2n1` [I.1, 7-chloro-6-cyclopropyl-2-[3-ethylsulfonyl-5-(4-fluorophenyl)-2-pyridyl]imidazo[1,2-c]pyrimidin-5-one], the mortality at 800 ppm in assay [1], in assay [2], in assay [4] and in assay [5] was greater than 75% throughout. Moreover, in assay [3], the mortality at 300 ppm was greater than 75%.
On to `CCS(=O)(=O)c1cc(C(C)(C)C#N)cnc1-c1cn2c(=O)n(C3CC3)c(C(F)(F)F)cc2n1` [Compound C.4, reference compound], for which the “Test according to B.4 (Plutella xylostella) @ 10 ppm” value in assay [1] is 25%.
Regarding `CCS(=O)(=O)c1cc(-c2ccc(F)cc2)cnc1-c1cn2c(=O)n(C3CC3)c(Br)cc2n1` [I.4, 7-bromo-6-cyclopropyl-2-[3-ethylsulfonyl-5-(4-fluorophenyl)-2-pyridyl]imidazo[1,2-c]pyrimidin-5-one], the mortality at 800 ppm in assay [1], in assay [2], in assay [4] and in assay [5] was greater than 75% throughout. For the same compound, the mortality at 300 ppm in assay [3] was greater than 75%.
For the compound `CCS(=O)(=O)c1cc(-c2ccc(F)cc2)c(C)nc1-c1cn2c(=O)n(C3CC3)c(Cl)cc2n1` [I.5, 7-chloro-6-cyclopropyl-2-[3-ethylsulfonyl-5-(4-fluorophenyl)-6-methyl-2-pyridyl]imidazo[1,2-c]pyrimidin-5-one], the mortality at 800 ppm in assay [1], in assay [2], in assay [4] and in assay [5] was greater than 75% throughout. Also, in assay [3], the mortality at 300 ppm is greater than 75%.
`CCS(=O)(=O)c1cc(C(C)(C)C#N)cnc1-c1cn2c(=O)n(C3CC3)c(Cl)cc2n1` [I.3]: the “Test according to B.4 (Plutella xylostella) @ 10 ppm” value in assay [1] came out at 100%. In addition, the mortality at 800 ppm in assay [1], in assay [4] and in assay [5] was greater than 75% each time. Besides, the mortality at 300 ppm in assay [3] was greater than 75%.
